Key:
blackgrass = assay: Test C preemergence; format: in vivo, Alopecurus myosuroides; settings: for Blackgrass plant response rating: preemergence; for Plant response rating, Blackgrass: Preemergence, 31 g ai/ha, scale 0 to 100, 0 no effect, 100 complete control
Summary of the method: (§1)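 Seeds were sown in loam–sand blend and sprayed preemergence, while plants at 1- to 4-leaf stage (2–18 cm) in peat-based medium received postemergence sprays; test chemicals were formulated in a non-phytotoxic solvent with surfactant. After 13–15 days in a greenhouse, injury was rated visually against controls, 0 (no effect) to 100 (complete control).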

morningglory [1] = assay: Test A postemergence; format: in vivo, Ipomoea spp.; settings: 0 to 100 scale where 0 is no effect and 100 is complete control
Summary of the method: (§2)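 Scoring: eye-based comparison with untreated controls, 0 for no effect through 100 for complete control, at about day 10. Treatments: directed soil spray preemergence; foliar spray postemergence on 2–10 cm plants at the one- to two-leaf stage. Medium: loam soil with sand.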

Italian ryegrass = assay: Test C preemergence; format: in vivo, Lolium multiflorum; settings: for Ryegrass, Italian plant response rating: preemergence; for Plant response rating, Ryegrass, Italian: Preemergence, 31 g ai/ha, scale 0 to 100, 0 no effect, 100 complete control
Summary of the method: as §1

pigweed = assay: Test C postemergence; format: in vivo, Amaranthus retroflexus; settings: for Plant response rating (0 to 100), Pigweed: postemergence; for Plant response rating, Pigweed: Postemergence, scale 0 to 100 (0 no effect, 100 complete control)
Summary of the method: as §1

wheat, winter = assay: Test C preemergence; format: in vivo, Triticum aestivum; settings: for Wheat plant response rating: preemergence; for Plant response rating, Wheat: Preemergence, 31 g ai/ha, scale 0 to 100, 0 no effect, 100 complete control
Summary of the method: as §1

velvetleaf [2] = assay: Test C preemergence; format: in vivo, Abutilon theophrasti; settings: for Velvetleaf plant response rating: preemergence; for Plant response rating, Velvetleaf: Preemergence, 31 g ai/ha, scale 0 to 100, 0 no effect, 100 complete control
Summary of the method: as §1

velvetleaf [3] = assay: Test A postemergence; format: in vivo, Abutilon theophrasti; settings: 0 to 100 scale where 0 is no effect and 100 is complete control
Summary of the method: as §2

ragweed = assay: Test C preemergence; format: in vivo, Ambrosia elatior; settings: for Ragweed plant response rating: preemergence
Summary of the method: as §1

morningglory [4] = assay: Test A preemergence; format: in vivo, Ipomoea spp.; settings: for Plant response rating, Morningglory: 125 g ai/ha, 0 to 100 scale where 0 is no effect and 100 is complete control; for Morningglory plant response rating: 500 g ai/ha, 0 to 100 scale, 0 no effect, 100 complete control, approx. 10 days
Summary of the method: as §2

Heteranthera limosa = assay: Test B flooded paddy test; format: in vivo; settings: Flood, 250 g ai/ha; 0 to 100 scale where 0 is no effect and 100 is complete control
Summary of the method: (§3)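 Plants at 2-leaf stage; pots flooded to 3 cm above soil and compound applied directly into paddy water, depth held throughout. After 13 to 15 days in greenhouse, visual rating versus controls on 0 (no effect) to 100 (complete control) scale.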

johnsongrass = assay: Test C preemergence; format: in vivo, Sorghum halepense; settings: for Johnsongrass plant response rating: preemergence; for Plant response rating, Johnsongrass: Preemergence, 31 g ai/ha, scale 0 to 100, 0 no effect, 100 complete control
Summary of the method: as §1

wheat [5] = assay: Test A postemergence; format: in vivo, Triticum aestivum; settings: 0 to 100 scale where 0 is no effect and 100 is complete control
Summary of the method: as §2

waterhemp = assay: Test C postemergence; format: in vivo, Amaranthus rudis; settings: for Plant response rating (0 to 100), Waterhemp: postemergence; for Plant response rating, Waterhemp: Postemergence, scale 0 to 100 (0 no effect, 100 complete control)
Summary of the method: as §1

sedge, umbrella = assay: Test B flooded paddy test; format: in vivo, Cyperus difformis; settings: Flood, 250 g ai/ha; 0 to 100 scale where 0 is no effect and 100 is complete control
Summary of the method: as §3

wheat [6] = assay: Test A preemergence; format: in vivo, Triticum aestivum; settings: for Plant response rating, Wheat: 125 g ai/ha, 0 to 100 scale where 0 is no effect and 100 is complete control
Summary of the method: as §2

velvetleaf [7] = assay: Test A preemergence; format: in vivo, Abutilon theophrasti; settings: for Plant response rating, Velvetleaf: 125 g ai/ha, 0 to 100 scale where 0 is no effect and 100 is complete control
Summary of the method: as §2

[8] = 62 g ai/ha, scale 0 (no effect) to 100 (complete control)
[9] = 125 g ai/ha, scale 0 (no effect) to 100 (complete control)
[10] = 250 g ai/ha, scale 0 (no effect) to 100 (complete control)
[11] = 500 g ai/ha, 0 to 100 scale, 0 no effect, 100 complete control, approx. 10 days
[12] = 16 g ai/ha, scale 0 to 100 (0 no effect, 100 complete control)

With N#Cc1cccc(Oc2ncc(F)cn2)c1-n1cc(Cl)cn1 [Compound 73] as the compound, how does the “Blackgrass plant response rating” value (blackgrass; [8]) read?
Its value is 80.

And the “Blackgrass plant response rating” value (blackgrass; [9])?
Its value is 90.

And the “Blackgrass plant response rating” value (blackgrass; [10])?
Its value is 90.

What about the “Plant response rating, Blackgrass” value (blackgrass) of the same compound?
Its value is 0.

And the “Plant response rating, Morningglory” value (morningglory [1]; 125 g ai/ha)?
The value was 90.

What about the “Plant response rating, Morningglory” value (morningglory [1]; 500 g ai/ha) of the same compound?
Its value is 100.

And the “Ryegrass, Italian plant response rating” value (Italian ryegrass; [8])?
The value was 5.

And the “Ryegrass, Italian plant response rating” value (Italian ryegrass; [9])?
Its value is 55.

What about the “Ryegrass, Italian plant response rating” value (Italian ryegrass; [10]) of the same compound?
The value was 70.

And the “Plant response rating, Ryegrass, Italian” value (Italian ryegrass)?
The value was 0.

And the “Plant response rating (0 to 100), Pigweed” value (pigweed; 125 g ai/ha)?
The value was 80.

What about the “Plant response rating (0 to 100), Pigweed” value (pigweed; 250 g ai/ha) of the same compound?
Its value is 90.

What about the “Plant response rating, Pigweed” value (pigweed; 31 g ai/ha, 13 to 15 days) of the same compound?
The value was 45.

And the “Plant response rating, Pigweed” value (pigweed; 62 g ai/ha)?
Its value is 70.

What about the “Wheat plant response rating” value (wheat, winter; [8]) of the same compound?
The value was 0.

And the “Wheat plant response rating” value (wheat, winter; [9])?
The value was 5.

And the “Wheat plant response rating” value (wheat, winter; [10])?
The value was 85.

And the “Plant response rating, Wheat” value (wheat, winter)?
The value was 0.

What about the “Velvetleaf plant response rating” value (velvetleaf [2]; [8]) of the same compound?
Its value is 75.

And the “Velvetleaf plant response rating” value (velvetleaf [2]; [9])?
The value was 100.

And the “Velvetleaf plant response rating” value (velvetleaf [2]; [10])?
The value was 100.

What about the “Plant response rating, Velvetleaf” value (velvetleaf [2]) of the same compound?
Its value is 60.

And the “Plant response rating, Velvetleaf” value (velvetleaf [3]; 125 g ai/ha)?
The value was 100.

And the “Plant response rating, Velvetleaf” value (velvetleaf [3]; 500 g ai/ha)?
Its value is 100.

And the “Ragweed plant response rating” value (ragweed; [8])?
Its value is 75.

And the “Ragweed plant response rating” value (ragweed; [9])?
Its value is 85.

And the “Ragweed plant response rating” value (ragweed; [10])?
The value was 85.

And the “Plant response rating, Morningglory” value (morningglory [4])?
Its value is 90.

What about the “Morningglory plant response rating” value (morningglory [4]) of the same compound?
The value was 100.

What about the “Plant response rating, Ducksalad” value (Heteranthera limosa) of the same compound?
Its value is 70.

And the “Johnsongrass plant response rating” value (johnsongrass; [8])?
The value was 35.

What about the “Johnsongrass plant response rating” value (johnsongrass; [9]) of the same compound?
The value was 75.

What about the “Johnsongrass plant response rating” value (johnsongrass; [10]) of the same compound?
The value was 98.

And the “Plant response rating, Johnsongrass” value (johnsongrass)?
Its value is 10.

And the “Plant response rating, Wheat” value (wheat [5]; 125 g ai/ha)?
Its value is 20.

What about the “Plant response rating, Wheat” value (wheat [5]; 500 g ai/ha) of the same compound?
The value was 50.

And the “Plant response rating (0 to 100), Waterhemp” value (waterhemp; 125 g ai/ha)?
The value was 75.

And the “Plant response rating (0 to 100), Waterhemp” value (waterhemp; 250 g ai/ha)?
Its value is 90.

And the “Plant response rating, Waterhemp” value (waterhemp; 31 g ai/ha, 13 to 15 days)?
Its value is 50.

What about the “Plant response rating, Waterhemp” value (waterhemp; 62 g ai/ha) of the same compound?
Its value is 60.

What about the “Plant response rating, Sedge, Umbrella” value (sedge, umbrella) of the same compound?
Its value is 85.

What about the “Plant response rating, Wheat” value (wheat [6]) of the same compound?
Its value is 0.

What about the “Wheat plant response rating” value (wheat [6]; [11]) of the same compound?
The value was 80.

What about the “Plant response rating, Velvetleaf” value (velvetleaf [7]) of the same compound?
Its value is 100.

And the “Velvetleaf plant response rating” value (velvetleaf [7]; [11])?
The value was 100.

For CCOc1cnn(-c2c(C#N)cccc2Oc2ncc(Cl)cn2)c1 [Compound 92], which “Blackgrass plant response rating” value (blackgrass; [12]) is on record?
The value was 0.

And the “Blackgrass plant response rating” value (blackgrass; [8])?
Its value is 70.

And the “Blackgrass plant response rating” value (blackgrass; [9])?
Its value is 90.

What about the “Plant response rating, Blackgrass” value (blackgrass) of the same compound?
The value was 5.

What about the “Plant response rating, Morningglory” value (morningglory [1]; 125 g ai/ha) of the same compound?
Its value is 100.

And the “Plant response rating, Morningglory” value (morningglory [1]; 500 g ai/ha)?
Its value is 100.

And the “Ryegrass, Italian plant response rating” value (Italian ryegrass; [12])?
The value was 0.

And the “Ryegrass, Italian plant response rating” value (Italian ryegrass; [8])?
Its value is 50.

And the “Ryegrass, Italian plant response rating” value (Italian ryegrass; [9])?
The value was 85.

And the “Plant response rating, Ryegrass, Italian” value (Italian ryegrass)?
Its value is 10.

What about the “Plant response rating (0 to 100), Pigweed” value (pigweed; 125 g ai/ha) of the same compound?
The value was 75.

What about the “Plant response rating, Pigweed” value (pigweed; 31 g ai/ha, 13 to 15 days) of the same compound?
The value was 60.

What about the “Plant response rating, Pigweed” value (pigweed; 62 g ai/ha) of the same compound?
Its value is 55.

And the “Wheat plant response rating” value (wheat, winter; [12])?
Its value is 0.

What about the “Wheat plant response rating” value (wheat, winter; [8]) of the same compound?
The value was 30.

What about the “Wheat plant response rating” value (wheat, winter; [9]) of the same compound?
The value was 80.

What about the “Plant response rating, Wheat” value (wheat, winter) of the same compound?
The value was 0.

What about the “Velvetleaf plant response rating” value (velvetleaf [2]; [12]) of the same compound?
Its value is 30.

And the “Velvetleaf plant response rating” value (velvetleaf [2]; [8])?
The value was 100.

What about the “Velvetleaf plant response rating” value (velvetleaf [2]; [9]) of the same compound?
Its value is 100.

What about the “Plant response rating, Velvetleaf” value (velvetleaf [2]) of the same compound?
Its value is 90.

And the “Plant response rating, Velvetleaf” value (velvetleaf [3]; 125 g ai/ha)?
The value was 100.

And the “Plant response rating, Velvetleaf” value (velvetleaf [3]; 500 g ai/ha)?
The value was 100.

And the “Ragweed plant response rating” value (ragweed; [12])?
The value was 10.

And the “Ragweed plant response rating” value (ragweed; [8])?
Its value is 50.

And the “Ragweed plant response rating” value (ragweed; [9])?
The value was 85.

And the “Plant response rating, Ragweed” value (ragweed; Preemergence, 31 g ai/ha, scale 0 to 100, 0 no effect, 100 complete control)?
Its value is 5.

What about the “Plant response rating, Morningglory” value (morningglory [4]) of the same compound?
The value was 90.

And the “Morningglory plant response rating” value (morningglory [4])?
The value was 100.

What about the “Plant response rating, Ducksalad” value (Heteranthera limosa) of the same compound?
The value was 95.

And the “Johnsongrass plant response rating” value (johnsongrass; [12])?
Its value is 0.

And the “Johnsongrass plant response rating” value (johnsongrass; [8])?
Its value is 70.

What about the “Johnsongrass plant response rating” value (johnsongrass; [9]) of the same compound?
Its value is 85.

And the “Plant response rating, Johnsongrass” value (johnsongrass)?
Its value is 5.

And the “Plant response rating, Wheat” value (wheat [5]; 125 g ai/ha)?
Its value is 60.

What about the “Plant response rating, Wheat” value (wheat [5]; 500 g ai/ha) of the same compound?
Its value is 70.

And the “Plant response rating (0 to 100), Waterhemp” value (waterhemp; 125 g ai/ha)?
Its value is 80.

And the “Plant response rating, Waterhemp” value (waterhemp; 31 g ai/ha, 13 to 15 days)?
The value was 45.

And the “Plant response rating, Waterhemp” value (waterhemp; 62 g ai/ha)?
Its value is 75.

What about the “Plant response rating, Sedge, Umbrella” value (sedge, umbrella) of the same compound?
Its value is 90.

And the “Plant response rating, Wheat” value (wheat [6])?
Its value is 0.

And the “Plant response rating, Velvetleaf” value (velvetleaf [7])?
Its value is 100.

From US9695155B2, “Herbicidal substituted pyrimidinyloxy benzene compounds” (E. I. DU PONT DE NEMOURS AND COMPANY, priority 2013, dated 2017)
